{"source": "patent US11059845B2", "about": "“Immune stimulating macrolides” (ISR IMMUNE SYSTEM REGULATION HOLDING AB (PUBL), priority 2017, dated 2021)", "key": {"Micrococcus luteus": {"test_system": "Micrococcus luteus", "assay": "Minimum Inhibitory Concentration (MIC) assay", "type": "cell-based", "details": "aerobic, 37° C., 18 h", "procedure": "(§1) The bioactivity of macrolide compounds against 4 strains of common gut bacteria (Escherichia coli, Streptococcus salivarius subsp. salivarius, Lactobacillus casei and Bifidobacterium longum subsp. infantis) and common mammalian skin isolate Micrococcus luteus, was assessed using the Minimum Inhibitory Concentration (MIC) assay. Bacterial strains were purchased from DSMZ (Brunswick, Germany) except M. luteus which was obtained from NCIMB, and stored in 20% glycerol at −80° C. Stock solutions (100% DMSO) of positive controls (azithromycin and erythromycin), and of test compounds 1 and 2 were diluted in broth to working stock concentrations of 256 μg/ml (final assay testing concentration range 128 μg/ml to 0.00391 μg/ml). Stock solutions of all other compounds were diluted in broth to working stock concentrations of 128 μg/ml (final assay testing concentration range 64 μg/ml to 0.00195 μg/ml). Bacterial strains were cultivated in appropriate broth in an anaerobic chamber at 37° C., except for M. luteus which was incubated aerobically at 37° C. 18 h cultures were diluted in broth to an OD595 of 0.1 and then further diluted 1:10. In 96-well plates, in duplicate, 200 μl working stock of test compound was transferred to well 1 and serially diluted (1:2) in broth. 100 μl bacterial suspension was aliquoted into each well and mixed thoroughly. Appropriate sterility controls were included and plates were incubated in an anaerobic chamber, or aerobically (M. luteus) at 37° C. for 18 h. The MIC was determined to be the concentration of test compound in the first well with no visible growth."}, "[1]": {"test_system": "Bifidobacterium longum subsp. infantis", "assay": "Minimum Inhibitory Concentration (MIC) assay", "type": "cell-based", "details": "anaerobic, 37° C., 18 h", "procedure": "as §1"}, "[2]": {"test_system": "Streptococcus salivarius subsp. salivarius", "assay": "Minimum Inhibitory Concentration (MIC) assay", "type": "cell-based", "details": "anaerobic, 37° C., 18 h", "procedure": "as §1"}, "Escherichia coli": {"test_system": "Escherichia coli", "assay": "Minimum Inhibitory Concentration (MIC) assay", "type": "cell-based", "details": "anaerobic, 37° C., 18 h", "procedure": "as §1"}, "Lactobacillus casei": {"test_system": "Lactobacillus casei", "assay": "Minimum Inhibitory Concentration (MIC) assay", "type": "cell-based", "details": "Lacticaseibacillus casei; anaerobic, 37° C., 18 h", "procedure": "as §1"}, "[3]": {"test_system": "Macrophages from healthy donors", "assay": "Cytokine/chemokine secretion from macrophages (cytometric bead assay)", "type": "cell-based, human", "procedure": "FIG. 10: Interferon-gamma secretion (as measured by cytometric bead assay) from macrophages stimulated with indicated compound for 48 h.\nFIG. 11: Chemokine RANTES secretion (as measured by cytometric bead assay) from PBMC or macrophages stimulated with indicated compound for 48 h.\nFIG. 12: IL12p70 secretion (as measured by cytometric bead assay) from PBMC or macrophages stimulated with indicated compound for 48 h.\n(§2) FIG. 13: IL1b secretion (as measured by cytometric bead assay) from PBMC, macrophages or CD4 T cells stimulated with indicated compound for 48 h.\nStudy 9: Macrophages from healthy donors where exposed to compounds 1 or 2 for 48 hours. […] Compound 1 is therefore able to induce IFN-gamma secretion in macrophages from healthy donors.\nStudy 10: PBMCs and macrophages where exposed to compounds 1 or 2 for 2 days (FIG. 11).\nStudy 11: PBMCs and macrophages where exposed to compounds 1 and 2 for 2 days.\n(§3) Study 12: PBMCs, macrophages and CD4+ T cells where exposed to compounds 1 and 2 for 2 days."}, "CD4+ T cells": {"test_system": "CD4+ T cells", "assay": "IL-1beta secretion from CD4+ T cells (cytometric bead assay)", "type": "cell-based, human", "details": "2 days", "procedure": "as §2, §3"}, "human TLR2": {"molecular_target": "T1, human TLR2 (Homo sapiens, UniProt O60603)", "T1 construct": "host or cells: recombinant HEK-293-TLR cell lines (hTLR2, NFkB-SEAP reporter)", "T1 sequence (O60603 21-784)": "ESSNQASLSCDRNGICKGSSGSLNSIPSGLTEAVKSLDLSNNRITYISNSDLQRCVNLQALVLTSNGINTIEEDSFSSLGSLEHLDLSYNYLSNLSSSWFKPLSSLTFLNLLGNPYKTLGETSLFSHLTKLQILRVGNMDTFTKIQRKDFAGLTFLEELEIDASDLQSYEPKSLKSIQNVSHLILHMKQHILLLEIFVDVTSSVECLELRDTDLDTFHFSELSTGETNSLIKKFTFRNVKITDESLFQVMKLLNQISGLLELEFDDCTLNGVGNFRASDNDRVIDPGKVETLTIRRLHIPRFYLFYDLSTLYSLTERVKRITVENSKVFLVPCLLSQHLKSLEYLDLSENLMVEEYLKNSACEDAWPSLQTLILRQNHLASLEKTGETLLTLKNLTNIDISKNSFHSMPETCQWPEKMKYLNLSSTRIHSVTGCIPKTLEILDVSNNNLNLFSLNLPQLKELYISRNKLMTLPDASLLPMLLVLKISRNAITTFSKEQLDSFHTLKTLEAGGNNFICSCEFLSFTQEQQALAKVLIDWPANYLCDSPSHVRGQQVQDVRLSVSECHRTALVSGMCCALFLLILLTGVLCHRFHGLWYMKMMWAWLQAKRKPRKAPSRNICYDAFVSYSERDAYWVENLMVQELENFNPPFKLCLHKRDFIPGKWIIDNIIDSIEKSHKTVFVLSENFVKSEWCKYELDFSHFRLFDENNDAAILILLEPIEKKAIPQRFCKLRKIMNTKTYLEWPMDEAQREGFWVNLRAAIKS", "assay": "TLR2 reporter assay (HEK-293-TLR, SEAP)", "type": "cell-based", "procedure": "Samples and controls were tested in duplicate on recombinant HEK-293-TLR cell lines using a cell reporter assay at Invivogen using their standard assay conditions. These cell lines functionally over-express human TLR2 protein as well as a reporter gene which is a secreted alkaline phosphatase (SEAP). The production of this reporter gene is driven by an NFkB inducible promoter. The TLR reporter cell lines activation results are given as optical density values (OD). 20 μl of each test article were used to stimulate the hTLR2 reporter cell lines in a 200 μl of final reaction volume. Samples were tested in duplicate, with at least two concentrations tested—20 uM and 10 uM.\nCompounds were tested using a TLR2 reporter assay (see general methods) that measured for stimulation of the TLR2 receptor. Stimulatory effect was measured as an increase in optical density (OD) due to release of secreted alkaline phosphatase (SEAP) and is shown in table 4: […]"}, "T cells in PBMC": {"test_system": "T cells in PBMC", "assay": "T cell proliferation with IL-2, Cell Trace Violet, flow cytometry", "type": "cell-based, human", "details": "6 days, in the presence of IL-2", "procedure": "FIG. 7. CD4 T cell proliferation after 6 days stimulation with compound 1, measured with proliferation dye Celltrace violet (Invitrogen) and flow cytometry. Untreated cells (UNT) or compound A were used as controls.\nStudy 6: PBMC were stimulated with compound 1 and cultured in RPMI media for 6 days in the presence of IL-2 (Miltenyi Biotechnologies) and Cell Trace Violet Dye (Invitrogen). Proliferation was measured with flow cytometry."}, "[4]": {"test_system": "PBMCs from CMV infected donors", "assay": "IFN-gamma secretion from PBMCs of CMV infected donors with CMV antigen (cytometric bead assay)", "type": "cell-based, human", "details": "3 days", "description": "FIG. 9: Interferon-gamma secretion (as measured by cytometric bead assay) from PBMCs (from a CMV+ donor) grown with CMV peptides in the presence or absence of compound 1 or A for […].\nStudy 8: PBMCs from CMV infected donors cultured in the presence of CMV antigen where either untreated or exposed to compound 1 or compound 2 for 3 days."}, "PBMCs": {"test_system": "PBMCs", "assay": "Supernatant IL-10 sandwich ELISA", "type": "cell-based, human", "details": "100 U/mL IL-2, 48 h and 7 days", "procedure": "Supernatant IL-10 was measured with a standard sandwich ELISA (all antibodies from BD Biosciences) after 48 hours and 7 days incubation with 2.5 μM of compound 1 and 100 U/mL IL-2 (Miltenyi Biotechnologies) in complete RPMI media, 37° C., 5% CO2\nSupernatant IL-10 was measured with a standard sandwich ELISA (all antibodies from BD Biosciences) after 48 hours and 7 days incubation with 2.5 uM of compound 1 and 100 U/mL IL-2 (Miltenyi Biotechnologies) in complete RPMI media, 37° C., 5% CO2."}, "C57bl/6 mice": {"test_system": "C57bl/6 mice", "assay": "MHC class I expression on CD11b+ splenocytes of mice after i.v. injection", "type": "in vivo, mouse", "details": "spleen 24 h later", "procedure": "FIG. 15: % MHC class I high CD11b+ cells in spleen of 3 individual C57bl/6 mice injected 24 h previously with indicated compound. MHC class I and CD11 b expression was measured by flow cytometry.\nStudy 14: Compound 1 or A was administered i.v. to C57bl/6 mice."}}}
{"smiles": "CC[C@H]1OC(=O)[C@H](C)[C@@H](O[C@H]2C[C@@H](N(C)C)[C@H](O)[C@@H](C)O2)[C@H](C)[C@@H](O)[C@](C)(O)C[C@@H](C)CN(C)[C@H](C)[C@@H](O)[C@]1(C)O", "note": "[Compound 1]", "values": [{"measurement": "MIC", "setting": "Micrococcus luteus", "value": "> 256", "unit": "µg/mL"}, {"measurement": "MIC", "setting": "[1]", "value": "> 64", "unit": "µg/mL"}, {"measurement": "MIC", "setting": "[2]", "value": "> 64", "unit": "µg/mL"}, {"measurement": "MIC", "setting": "Escherichia coli", "value": "> 64", "unit": "µg/mL"}, {"measurement": "MIC", "setting": "Lactobacillus casei", "value": "> 64", "unit": "µg/mL"}, {"measurement": "IL-1beta secretion, macrophages", "setting": "[3]; 2 days", "value": "increased"}, {"measurement": "IL-12p70 secretion, macrophages", "setting": "[3]; 2 days", "value": "secreted IL-12p70"}, {"measurement": "expression of RANTES in macrophages", "setting": "[3]; 2 days", "value": "induced a high expression"}, {"measurement": "IFN-gamma secretion, macrophages", "setting": "[3]; 48 hours", "value": "secreted IFN-gamma"}, {"measurement": "IL-1beta secretion, CD4+ T cells", "setting": "CD4+ T cells", "value": "no IL-1beta was induced"}, {"measurement": "OD after addition of 5 μM test article", "setting": "human TLR2; 5 μM, SEAP reporter optical density", "value": 0.111}, {"measurement": "OD after addition of 10 μM test article", "setting": "human TLR2; 10 μM, SEAP reporter optical density", "value": 0.202}, {"measurement": "OD after addition of 20 μM test article", "setting": "human TLR2; 20 μM, SEAP reporter optical density", "value": 0.458}, {"measurement": "concentrations at which TLR2 was stimulated (down to)", "setting": "human TLR2; lowest stimulating concentration tested", "value": "≥ 5", "unit": "µM"}, {"measurement": "cytokine driven proliferation profile of T cells", "setting": "T cells in PBMC", "value": "altered cytokine driven proliferation profile"}, {"measurement": "IFN-gamma secretion, PBMCs with CMV antigen", "setting": "[4]", "value": "induced secretion of high levels of IFN-gamma"}, {"measurement": "production of IL-10", "setting": "PBMCs", "value": "increased production"}, {"measurement": "splenocyte cells (CD11b+) with high MHC I expression", "setting": "C57bl/6 mice", "value": "induced an increase"}]}
